Literature values as cited in patent publication US11306114B2, “Process for separation, isolation and characterization of steviol glycosides” (Heartland Consumer Products, LLC, priority 2014, dated 2022).
Like-named read-outs stand apart in the source and are kept apart here.

Assays:
[1] = subjective relative ranking; data from Tanaka, Pure & Appl. Chem.
[2] = for Sweetness Intensity: relative to an equal weight of sucrose, data from Tanaka, Pure & Appl. Chem.
[3] = literature statements
[4] = carbonated beverages (Chang et al. 1983) / general statement

heat and pH stability [4] | Compound | Sweetness Quality [1] | times sweeter than sucrose ([2]; general statements in text, varies with temperature and viscosity of the carrier medium) | Sweetness Intensity [2] | taste attributes ([3]; listed as Rebaudioside A) | taste attributes ([3]; listed as rebaudioside A) | taste attributes [3]
 | C=C1C[C@@]23CC[C@H]4[C@@](C)(CCC[C@@]4(C)C(=O)O[C@@H]4O[C@H](CO)[C@@H](O)[C@H](O)[C@H]4O)[C@@H]2CC[C@]1(O[C@@H]1O[C@H](CO)[C@@H](O)[C@H](O)[C@H]1O[C@@H]1O[C@@H](C)[C@H](O)[C@@H](O)[C@H]1O)C3 [dulcoside-A, dulcoside A] | −2 | about 30 times | 70 |  |  | 
heat and pH stability | C=C1C[C@@]23CC[C@H]4[C@@](C)(CCC[C@@]4(C)C(=O)O[C@@H]4O[C@H](CO)[C@@H](O)[C@H](O)[C@H]4O)[C@@H]2CC[C@]1(O[C@@H]1O[C@H](CO)[C@@H](O)[C@H](O[C@@H]2O[C@H](CO)[C@@H](O)[C@H](O)[C@H]2O)[C@H]1O[C@@H]1O[C@H](CO)[C@@H](O)[C@H](O)[C@H]1O)C3 [rebaudioside-A, rebaudioside A] | 2 |  | 250 | the least astringent, the least bitter, and the least persistent aftertaste | metallic and bitter notes | 
 | C=C1C[C@@]23CC[C@H]4[C@@](C)(CCC[C@@]4(C)C(=O)O[C@@H]4O[C@H](CO)[C@@H](O)[C@H](O)[C@H]4O[C@@H]4O[C@H](CO)[C@@H](O)[C@H](O)[C@H]4O)[C@@H]2CC[C@]1(O[C@@H]1O[C@H](CO)[C@@H](O)[C@H](O[C@@H]2O[C@H](CO)[C@@H](O)[C@H](O)[C@H]2O)[C@H]1O[C@@H]1O[C@H](CO)[C@@H](O)[C@H](O)[C@H]1O)C3 [rebaudioside-D, rebaudioside D] | 3 |  | 300 |  |  | 
 | C=C1C[C@@]23CC[C@H]4[C@@](C)(CCC[C@@]4(C)C(=O)O[C@@H]4O[C@H](CO)[C@@H](O)[C@H](O)[C@H]4O[C@@H]4O[C@H](CO)[C@@H](O)[C@H](O)[C@H]4O)[C@@H]2CC[C@]1(O[C@@H]1O[C@H](CO)[C@@H](O)[C@H](O)[C@H]1O[C@@H]1O[C@H](CO)[C@@H](O)[C@H](O)[C@H]1O)C3 [rebaudioside-E, rebaudioside E] | 1 |  | 200 |  |  | 
 | C=C1C[C@@]23CC[C@H]4[C@@](C)(CCC[C@@]4(C)C(=O)O[C@@H]4O[C@H](CO)[C@@H](O)[C@H](O)[C@H]4O)[C@@H]2CC[C@]1(O[C@@H]1O[C@H](CO)[C@@H](O)[C@H](O)[C@H]1O)C3 [rubusoside] | −2 |  | 115 |  |  | 
 | C=C1C[C@@]23CC[C@H]4[C@@](C)(CCC[C@@]4(C)C(=O)O)[C@@H]2CC[C@]1(O[C@@H]1O[C@H](CO)[C@@H](O)[C@H](O)[C@H]1O[C@@H]1O[C@H](CO)[C@@H](O)[C@H](O)[C@H]1O)C3 [steviolbioside] | −3 |  | 40 |  |  | 
 | C=C1C[C@@]23CC[C@H]4[C@@](C)(CCC[C@@]4(C)C(=O)O)[C@@H]2CC[C@]1(O[C@@H]1O[C@H](CO)[C@@H](O)[C@H](O)[C@H]1O)C3 [steviolmonoside] | −3 |  | 40 |  |  | 
heat and pH stability | C=C1C[C@@]23CC[C@H]4[C@@](C)(CCC[C@@]4(C)C(=O)O[C@@H]4O[C@H](CO)[C@@H](O)[C@H](O)[C@H]4O)[C@@H]2CC[C@]1(O[C@@H]1O[C@H](CO)[C@@H](O)[C@H](O)[C@H]1O[C@@H]1O[C@H](CO)[C@@H](O)[C@H](O)[C@H]1O)C3 [stevioside, 13-[(2-O-β-D-glucopyranosyl-α-D-glucopyranosyl)oxy]-kaur-16-en-18-oic acid β-D-glucopyranosyl ester] | 0 |  | 145 |  |  | metallic and bitter notes
 | rebaudioside B | 3 |  | 300 |  |  | 
 | rebaudioside C [rebaudioside-C] | −1 |  | 200 |  |  | 
